# Test results published in US20080268036A1, “Co-processing of active pharmaceutical/nutraceutical ingredients” (JRS Pharma, priority 2007, published 2008).
# Format: physicochemical
# Description: The slurry should be thoroughly agitated during preparation with a suitable device (like an electric lab stirrer). The desired temperature for heating the slurry will vary depending on the solubility of the active agent and the temperature that the active agent begins to degrade.
compound,measurement,value
Cl.N[C@H]1C(O)O[C@H](CO)[C@@H](O)[C@@H]1O (stereo partly shown) [Glucosamine HCl],temperature dependent solubility in water,greater than 60 °C
